From patent publication US9221786B2, “2-fluorophenyl propionic acid derivatives” (LTT BIO-PHARMA CO., LTD., priority 2011, dated 2015)

Assays:
[1] = tested on: Male Wister rats; assay: Effect on carrageenin-induced edema; assay type: in vivo, rat; conditions: oral, 1 hour before carrageenin, 3 and 6 hours, FIG. 2
Experimental: B: Effect on Carrageenin-Induced Edema
This test was carried out according to the method described in Br. J. Pharmacol., 151; 285-91 (2007).
Male Wister rats (weight: 180 to 200 g) were fasted for 18 hours, and a test compound was orally administered to the rats. After 1 hour, 100 μL of 1% carrageenin (dissolved in physiological saline) was subcutaneously injected into the left footpad to induce edema.
Before carrageenin administration, and three hours and six hours after carrageenin administration, the leg volume was measured using a plethysmometer.
The edema inhibition rate is calculated on the basis of the following equation. Inhibition rate(%)=100−(edema volume when a compound was administrated/edema volume when a vehicle was administrated)×100.

[2] = molecular target: T1, COX-2 (Homo sapiens, UniProt P35354); assay: Human whole blood assay, in vitro COX-2 assay (LPS-stimulated, PGE2 by EIA); assay type: cell-based; conditions: for selective inhibitory action on COX-2 activity: compared with loxoprofen (1), Table 12; for COX Selectivity COX-1/COX-2: ratio of IC50 COX-1 / IC50 COX-2, human whole blood
T1 construct: incubated at 37° C. for 24 hours to induce COX-2; from tissue; host or cells: heparinised human whole blood from healthy donors, stimulated with LPS
T1 sequence (P35354 18-604): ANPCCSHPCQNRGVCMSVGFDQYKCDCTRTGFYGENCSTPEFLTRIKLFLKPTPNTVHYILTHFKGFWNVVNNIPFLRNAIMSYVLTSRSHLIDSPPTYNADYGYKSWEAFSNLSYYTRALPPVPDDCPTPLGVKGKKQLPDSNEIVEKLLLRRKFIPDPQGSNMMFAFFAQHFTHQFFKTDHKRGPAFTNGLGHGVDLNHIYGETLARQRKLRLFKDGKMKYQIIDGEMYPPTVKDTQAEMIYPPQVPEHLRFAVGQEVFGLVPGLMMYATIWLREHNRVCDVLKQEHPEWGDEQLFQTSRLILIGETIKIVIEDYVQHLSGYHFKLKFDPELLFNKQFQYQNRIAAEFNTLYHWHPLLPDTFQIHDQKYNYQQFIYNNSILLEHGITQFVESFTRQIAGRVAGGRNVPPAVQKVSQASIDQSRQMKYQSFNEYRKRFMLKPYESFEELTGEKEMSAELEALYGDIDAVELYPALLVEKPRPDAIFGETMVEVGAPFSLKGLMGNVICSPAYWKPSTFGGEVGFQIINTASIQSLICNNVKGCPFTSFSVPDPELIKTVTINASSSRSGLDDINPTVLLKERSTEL
Experimental: Human Whole Blood Assay (In Vitro)
This test was carried out according to the method described in Inflamm. Res., 45: 68-74 (1996).
As blood donors, persons who were healthy on the day of collecting and had not taken NSAIDs for at least a week or more were selected.
Blood was collected in test tubes treated with heparin (Venoject II blood collection tubes, produced by TERUMO CORPORATION). To the test tubes, inflammatory stimulant lipopolysaccharide (LPS) [Sigma-Aldrich Japan Inc., #L2880 from E. coli 055:B5; diluted with phosphate buffered saline (PBS) at a final concentration of 100 μg/mL] was added. Aliquots of 500 μL were dispensed in the tubes, and 2 μL of a solution of a test compound (final concentration: 0.1 μM to 1000 μM) in a suitable solvent (DMSO or MilliQ water) was added to the tubes and incubated at 37° C. for 24 hours to induce COX-2.
After the incubation, the sample was centrifuged at 12,000×g for 5 minutes to separate blood serum. To remove protein from blood, 100 μL of obtained blood serum was added to 400 μL of ethanol, and the mixture was centrifuged again at 12,000×g for 5 minutes. PGE2 in the supernatant was quantitatively determined using an enzyme immunoassay (EIA) kit [Cayman (Ann, Arbor, Mich., USA) #514040] according to the attached protocol.

[3] = tested on: Male Wister rats; assay: Gastric ulceration after oral administration (lesion index); assay type: in vivo, rat; conditions: rats fasted 18 hours, stomach excised after 8 hours, FIG. 1, versus loxoprofen (1)
Experimental: This test was carried out according to the method described in Biochem. Pharmacol., 67; 575-85 (2004).
Male Wister rats (weight: 180 to 200 g) were fasted for 18 hours, and a test compound was orally administered to the rats. After 8 hours, the stomach was excised and the area of ulcers found in the stomach was measured. The total area of all ulcers was represented as the lesion index.

[4] = earlier work of the inventors, Patent Literature 1; cited from earlier work
[5] = compared with loxoprofen; earlier work, Patent Literature 1; cited from earlier work

SMILES	COX Selectivity COX-1/COX-2 [2]	anti-inflammatory effect (edema inhibition) [1]	selective inhibitory action on COX-2 activity [2]	gastric ulceration / gastric damage [3]	ulceration action [4]	anti-inflammatory effect [5]
CC(C(=O)O)c1ccc(CC2CCCC2=O)cc1 (stereo not drawn) [Compound 1, Loxoprofen, reference compound]	2.3	–	–	–	–	–
CC(C(=O)O)c1ccc(CC2CCCC2=O)cc1F (stereo not drawn) [Compound 2, 2-fluoroloxoprofen]	1.7	–	–	–	low ulceration action	same anti-inflammatory effect as loxoprofen
CC(C(=O)O)c1ccc(NC2CCCC2)cc1F (stereo not drawn) [Compound 11a, 2-[4-(cyclopentylamino)-2-fluoro-phenyl]propionic acid]	0.7	excellent anti-inflammatory effect	weaker selective inhibitory action on COX-2 activity than loxoprofen (1)	gastric ulceration was significantly reduced	–	–

Continued, in another order:

COX Selectivity COX-1/COX-2 [2]	SMILES	anti-inflammatory effect (edema inhibition) [1]	selective inhibitory action on COX-2 activity [2]	gastric ulceration / gastric damage [3]	ulceration action [4]	anti-inflammatory effect [5]
0.1	CC(C(=O)O)c1ccc(OC2CCCC2)cc1F (racemic) [Compound 14, 2-[4-(cyclopentyloxy)-2-fluorophenyl]-propionic acid]	excellent anti-inflammatory effect	weaker selective inhibitory action on COX-2 activity than loxoprofen (1)	gastric ulceration was significantly reduced	–	–
7.6	CC(C(=O)O)c1ccc(Cc2ccoc2)cc1F (racemic) [Compound 22a, 2-[2-fluoro-4-(furan-3-ylmethyl)-phenyl]propionic acid]	same level of anti-inflammatory effect as loxoprofen (1)	–	significantly reducing gastric damage	–	–
5.3	CC(C(=O)O)c1ccc(Cc2ccco2)cc1F (stereo not drawn) [Compound 21a, 2-[2-fluoro-4-(furan-2-ylmethyl)-phenyl]propionic acid]	same level of anti-inflammatory effect as loxoprofen (1)	–	significantly reducing gastric damage	–	–
